Assay results from BindingDB's records for doi:10.7270/Q2TX3CSC (Vanderbilt Screening Center for GPCRs, Ion Channels and …, 2009).

The compounds below were run against T1, Solute carrier family 12 member 5 (Homo sapiens, UniProt Q9H2X9) (assay: KCC2 modulator potency by thallium flux, dose response, cell-based, HEK293 KCC2, FluoZin-2 fluorescence (AID 1736)). Conditions: not given.
T1 sequence (Q9H2X9 whole entry): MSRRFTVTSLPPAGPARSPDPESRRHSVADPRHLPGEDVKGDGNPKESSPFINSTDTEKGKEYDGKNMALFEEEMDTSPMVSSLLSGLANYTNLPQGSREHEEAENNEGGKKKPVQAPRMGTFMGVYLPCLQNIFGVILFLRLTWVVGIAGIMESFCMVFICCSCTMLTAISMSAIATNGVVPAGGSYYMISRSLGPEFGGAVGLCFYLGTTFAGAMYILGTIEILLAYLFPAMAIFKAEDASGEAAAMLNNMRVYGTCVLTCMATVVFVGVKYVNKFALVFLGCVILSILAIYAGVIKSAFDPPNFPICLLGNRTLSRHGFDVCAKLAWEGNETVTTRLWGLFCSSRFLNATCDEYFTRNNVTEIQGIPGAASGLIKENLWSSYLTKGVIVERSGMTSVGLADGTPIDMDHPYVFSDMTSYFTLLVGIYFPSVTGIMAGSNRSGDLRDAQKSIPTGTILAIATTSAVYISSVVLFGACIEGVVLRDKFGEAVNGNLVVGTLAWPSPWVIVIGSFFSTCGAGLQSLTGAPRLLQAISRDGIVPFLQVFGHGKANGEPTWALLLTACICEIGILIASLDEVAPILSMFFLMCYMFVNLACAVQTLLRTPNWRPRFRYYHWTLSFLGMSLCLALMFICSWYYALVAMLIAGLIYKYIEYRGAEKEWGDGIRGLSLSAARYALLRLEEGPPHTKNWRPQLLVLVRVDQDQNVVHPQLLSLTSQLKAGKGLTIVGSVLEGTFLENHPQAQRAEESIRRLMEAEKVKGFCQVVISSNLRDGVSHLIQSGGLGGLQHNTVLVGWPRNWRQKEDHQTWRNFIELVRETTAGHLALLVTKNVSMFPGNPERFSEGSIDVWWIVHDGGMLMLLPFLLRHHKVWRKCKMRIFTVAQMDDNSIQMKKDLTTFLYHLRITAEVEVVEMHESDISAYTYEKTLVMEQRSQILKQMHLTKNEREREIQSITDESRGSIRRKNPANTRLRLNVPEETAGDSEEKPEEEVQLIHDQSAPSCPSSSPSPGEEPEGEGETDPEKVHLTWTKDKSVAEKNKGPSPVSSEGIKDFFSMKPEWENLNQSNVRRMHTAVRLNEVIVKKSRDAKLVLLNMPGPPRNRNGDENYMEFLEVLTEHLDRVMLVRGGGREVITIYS

**Q.** Which EC50 does the source give for `O=C(NCc1cccnc1)c1ccc(COc2ccc(Cl)cc2Cl)o1` [5-[(2,4-dichlorophenoxy)methyl]-N-(3-pyridinylmethyl)-2-furancarboxamide] here?
**A.** 668 µM

**Q.** Which EC50 does the source give for `O=C(NCc1ccc2c(c1)OCO2)c1ccc(COc2cc(Cl)ccc2Cl)o1` [5-[(2,5-dichlorophenoxy)methyl]-N-piperonyl-2-furamide] here?
**A.** 6.14 µM

**Q.** How did the EC50 turn out when `O=C(NCCc1cn2ccccc2n1)c1cc(COc2c(F)cccc2F)on1` [5-[(2,6-difluorophenoxy)methyl]-N-(2-imidazo[1,2-a]pyridin-2-ylethyl)-1,2-oxazole-3-carboxamide] was run?
**A.** 78.9 µM

**Q.** Which EC50 does the source give for `Sc1nnc(CNc2cccc(Cl)c2)o1` [5-[(3-chloroanilino)methyl]-3H-1,3,4-oxadiazole-2-thione] here?
**A.** 1.75 µM

**Q.** For `Sc1nnc(Nc2ccccc2)s1` [5-anilino-3H-1,3,4-thiadiazole-2-thione], which EC50 is on record?
**A.** 2.84 µM

**Q.** `CCCn1c(N)c(C(=O)CSc2nnc(Cc3ccccc3)o2)c(=O)n(C)c1=O` [6-amino-3-methyl-5-[1-oxo-2-[[5-(phenylmethyl)-1,3,4-oxadiazol-2-yl]thio]ethyl]-1-propylpyrimidine-2,4-dione] was tested. Which EC50 did it give?
**A.** 0.017 µM

**Q.** With `O=c1[nH]c2ccc(S(=O)(=O)N3CCN(c4ccccc4F)CC3)cc2s1` [6-{[4-(2-fluorophenyl)piperazin-1-yl]sulfonyl}-1,3-benzothiazol-2(3H)-one] as the compound, how does the EC50 read?
**A.** 5.64 µM

**Q.** For `CCc1ccc(Nc2nnc(SCc3cc(=O)n4ccsc4n3)s2)cc1` [7-[[5-(4-ethylanilino)-1,3,4-thiadiazol-2-yl]sulfanylmethyl]-[1,3]thiazolo[3,2-a]pyrimidin-5-one], which EC50 is on record?
**A.** 0.202 µM

**Q.** How did the EC50 turn out when `Cc1ccc2[nH]c3c(N4CCN(Cc5ccccc5)CC4)ncnc3c2c1` [8-methyl-4-[4-(phenylmethyl)-1-piperazinyl]-5H-pyrimido[5,4-b]indole] was run?
**A.** 2.94 µM

**Q.** `O=C(C1CCN(c2nc3ccc(Br)cc3s2)CC1)N1CCC2(CC1)OCCO2` [8-{[1-(6-bromo-1,3-benzothiazol-2-yl)piperidin-4-yl]carbonyl}-1,4-dioxa-8-azaspiro[4.5]decane] was tested. Which EC50 did it give?
**A.** 14.3 µM

**Q.** For `O=C(C1CCCN(S(=O)(=O)c2cccc3nonc23)C1)N1CCC(Cc2ccccc2)CC1` (stereo unspecified) [(1-benzofurazan-4-ylsulfonyl-3-piperidyl)-(4-benzylpiperidino)methanone], which EC50 is on record?
**A.** 3810 µM

**Q.** How did the EC50 turn out when `c1ccc(-n2cnc3cc(NCc4ccncc4)ccc32)cc1` [(1-phenylbenzimidazol-5-yl)-(4-pyridylmethyl)amine] was run?
**A.** 1.92 µM

**Q.** `COc1ccc(NC(=S)NC(N)=Nc2nc(C)c3ccccc3n2)cc1` [(1E)-1-[amino-[(4-methyl-2-quinazolinyl)amino]methylidene]-3-(4-methoxyphenyl)thiourea] was tested. Which EC50 did it give?
**A.** 4.61 µM

**Q.** For `COc1cc(C(=S)N2CCOCC2)cc(OC)c1OC(=O)Cc1ccccc1` [(2,6-dimethoxy-4-morpholin-4-ylcarbothioyl-phenyl) 2-phenylethanoate], which EC50 is on record?
**A.** 0.81 µM

**Q.** For `c1ccc(-c2csc(N=NCc3ccco3)n2)cc1` [(2-furfurylideneamino)-(4-phenylthiazol-2-yl)amine], which EC50 is on record?
**A.** 15 µM

**Q.** Which EC50 does the source give for `COc1cc(C(=S)N2CCOCC2)ccc1OC(=O)Cc1ccc(F)cc1` [(2-methoxy-4-morpholin-4-ylcarbothioyl-phenyl) 2-(4-fluorophenyl)ethanoate] here?
**A.** 29.4 µM

**Q.** With `CC1Cc2ccccc2N1C(=O)c1ccc(N2CCCCC2)c([N+](=O)[O-])c1` (stereo unspecified) [(2-methyl-2,3-dihydroindol-1-yl)-(3-nitro-4-piperidin-1-yl-phenyl)methanone] as the compound, how does the EC50 read?
**A.** 0.92 µM

**Q.** `CC1Cc2ccccc2N1C(=O)c1ccc(N2CCCC2)c([N+](=O)[O-])c1` (stereo unspecified) [(2-methyl-2,3-dihydroindol-1-yl)-(3-nitro-4-pyrrolidin-1-yl-phenyl)methanone] was tested. Which EC50 did it give?
**A.** 0.772 µM

**Q.** With `COC(=O)[C@@H](NC(=O)O[C@@H]1C(=O)c2ccc(OC)cc2O[C@H]1c1cccc(C(F)(F)F)c1)C(C)C` [(2S)-2-[[(2S,3S)-4-keto-7-methoxy-2-[3-(trifluoromethyl)phenyl]chroman-3-yl]oxycarbonylamino]-3-methyl-butyric acid methyl ester] as the compound, how does the EC50 read?
**A.** 1.24 µM

**Q.** With `N#CC(C(=O)COc1ccccc1)c1nc2ccccc2s1` (stereo unspecified) [(2Z)-2-(3H-1,3-benzothiazol-2-ylidene)-3-keto-4-phenoxy-butyronitrile] as the compound, how does the EC50 read?
**A.** 8.56 µM

**Q.** `O=C(OCn1ncc(Cl)c(Cl)c1=O)c1ccc(F)cc1` [(4,5-dichloro-6-oxopyridazin-1-yl)methyl 4-fluorobenzoate] was tested. Which EC50 did it give?
**A.** 14.1 µM

**Q.** For `CC(C)c1onc(C(=O)N2CCN(Cc3ccccc3)CC2)c1[N+](=O)[O-]` [(4-benzylpiperazin-1-yl)-(4-nitro-5-propan-2-yl-1,2-oxazol-3-yl)methanone], which EC50 is on record?
**A.** 0.34 µM

**Q.** `Cc1onc(C(=O)N2CCN(Cc3ccccc3)CC2)c1[N+](=O)[O-]` [(4-benzylpiperazin-1-yl)-(5-methyl-4-nitro-1,2-oxazol-3-yl)methanone] was tested. Which EC50 did it give?
**A.** 59.4 µM

**Q.** How did the EC50 turn out when `COc1ccc(C(=O)N2CCCC(c3ccccc3)C2)cc1` (stereo unspecified) [(4-methoxyphenyl)-(3-phenyl-1-piperidinyl)methanone] was run?
**A.** 7.32 µM

**Q.** Which EC50 does the source give for `CCOc1[nH]n(-c2ccccc2)c(=O)c1C=Nc1ccc(F)cc1F` [(4E)-4-[[[2,4-bis(fluoranyl)phenyl]amino]methylidene]-5-ethoxy-2-phenyl-pyrazol-3-one] here?
**A.** 0.461 µM

**Q.** Which EC50 does the source give for `Cc1ccc(/C=C2\SC(=S)N(/N=C/C3C=C([N+](=O)[O-])C=CC3=O)C2=O)o1` (stereo unspecified) [(5Z)-5-[(5-methylfuran-2-yl)methylidene]-3-[[(E)-(3-nitro-6-oxocyclohexa-2,4-dien-1-ylidene)methyl]amino]-2-sulfanylidene-1,3-thiazolidin-4-one] here?
**A.** 11.8 µM

**Q.** With `Oc1ccccc1CN=Nc1nc2ccccc2o1` [(6E)-6-[(1,3-benzoxazol-2-ylhydrazo)methylidene]-1-cyclohexa-2,4-dienone] as the compound, how does the EC50 read?
**A.** 98.9 µM

**Q.** With `O=C(/C=C/c1ccco1)N1CCC(Cc2ccccc2)CC1` [(E)-1-(4-benzylpiperidin-1-yl)-3-(furan-2-yl)prop-2-en-1-one] as the compound, how does the EC50 read?
**A.** 6.56 µM

**Q.** How did the EC50 turn out when `CC1Cc2ccccc2N1C(=O)/C=C/c1cccc(F)c1` (stereo unspecified) [(E)-3-(3-fluorophenyl)-1-(2-methyl-2,3-dihydroindol-1-yl)-2-propen-1-one] was run?
**A.** 129 µM

**Q.** `COc1ccc(-c2nnc(S/C(=C/c3ccc(Cl)cc3)C(=O)O)o2)cc1` [(E)-3-(4-chlorophenyl)-2-[[5-(4-methoxyphenyl)-1,3,4-oxadiazol-2-yl]sulfanyl]prop-2-enoic acid] was tested. Which EC50 did it give?
**A.** 0.287 µM

**Q.** For `O=C(O)/C=C/c1cn(Cc2ccccc2Cl)nc1-c1ccccc1` [(E)-3-[1-(2-chlorobenzyl)-3-phenyl-pyrazol-4-yl]acrylic acid], which EC50 is on record?
**A.** 3.26 µM

Same assay, conditions: inactive by the depositor's call

**Q.** With `O=C(NCCCn1ncc2ccccc21)c1cc(COc2c(F)cccc2F)on1` [5-[(2,6-difluorophenoxy)methyl]-N-(3-indazol-1-ylpropyl)-1,2-oxazole-3-carboxamide] as the compound, how does the EC50 read?
**A.** 18.7 µM

**Q.** `Cc1ccc(CN(C)C(=O)c2cc(COc3ccc(F)cc3Cl)on2)o1` [5-[(2-chloranyl-4-fluoranyl-phenoxy)methyl]-N-methyl-N-[(5-methylfuran-2-yl)methyl]-1,2-oxazole-3-carboxamide] was tested. Which EC50 did it give?
**A.** 89.2 µM

**Q.** With `Cc1nc2c(-c3ccc(Cl)cc3)c(C)[nH]n2c(=O)c1Cc1ccccc1` [6-benzyl-3-(4-chlorophenyl)-2,5-dimethylpyrazolo[1,5-a]pyrimidin-7(4H)-one] as the compound, how does the EC50 read?
**A.** 43.9 µM

**Q.** For `CN(C)CCn1c(=S)[nH]c2ccc(Cl)cc2c1=O` [6-chloro-3-[2-(dimethylamino)ethyl]-2-thioxo-2,3-dihydroquinazolin-4(1H)-one], which EC50 is on record?
**A.** 67.2 µM

**Q.** For `COc1ccc(Nc2nnc(SCc3cc(=O)n4ccsc4n3)s2)cc1` [7-[[5-(4-methoxyanilino)-1,3,4-thiadiazol-2-yl]sulfanylmethyl]-[1,3]thiazolo[3,2-a]pyrimidin-5-one], which EC50 is on record?
**A.** 8870 µM

**Q.** For `CC(C)Oc1ccccc1OCCCOc1cccc2cccnc12` [8-[3-(2-isopropoxyphenoxy)propoxy]quinoline], which EC50 is on record?
**A.** 10.5 µM

**Q.** Which EC50 does the source give for `COC(=O)[C@@H](NC(=O)O[C@@H]1C(=O)c2cc(Br)ccc2O[C@H]1c1cccc(OC)c1)C(C)C` [(2S)-2-[[(2S,3S)-6-bromo-4-keto-2-(3-methoxyphenyl)chroman-3-yl]oxycarbonylamino]-3-methyl-butyric acid methyl ester] here?
**A.** 33.7 µM

**Q.** How did the EC50 turn out when `Cc1cc2ccccn2c1C(=O)c1nc(N2CCOCC2)ncc1Cl` [(5-chloranyl-2-morpholin-4-yl-pyrimidin-4-yl)-(2-methylindolizin-3-yl)methanone] was run?
**A.** 11 µM

**Q.** How did the EC50 turn out when `O=C(O)/C=C/c1cn(Cc2ccccc2)nc1-c1ccc(Cl)cc1` [(E)-3-[1-benzyl-3-(4-chlorophenyl)pyrazol-4-yl]acrylic acid] was run?
**A.** 26.3 µM

**Q.** For `Cc1ccc(-c2nn(Cc3ccccc3)cc2/C=C/C(=O)O)cc1` [(E)-3-[1-benzyl-3-(4-methylphenyl)pyrazol-4-yl]prop-2-enoic acid], which EC50 is on record?
**A.** 12.1 µM
